Measured values as given in paper PMC11779861 (Scientific Reports, 2025).
Read-outs that look alike come from different tables or passages of the source.

Legend:
[1] = tested on: ARPE-19 human retinal cells; experiment: MTS cell growth assay; assay type: cell-based; settings: read-out: IC50 (cell growth)
[2] = tested on: hiPSC-CMs; experiment: Extracellular lactate dehydrogenase; assay type: cell-based, human; settings: 48-hour treatment
[3] = tested on: Human Induced Pluripotent Stem Cell (hiPSC)-Derived Cardiomyocytes
[4] = tested on: hiPSC-CM cell monolayer; experiment: Cell health index: cardiomyocyte cell monolayer assessment; assay type: cell-based, human
[5] = cited from earlier work

For `C=CCNC1=C2C[C@@H](C)C[C@H](OC)[C@H](O)[C@@H](C)/C=C(\C)[C@H](OC(N)=O)[C@@H](OC)/C=C\C=C(/C)C(=O)NC(=CC1=O)C2=O` [17-AAG], the IC50 ([1]; ARPE-19, 48 hr, MTS, Avg ± SD, N = 3 biological replicates) was 20 nM, the “extracellular LDH (in words)” value [2] was “highly dose-dependently toxic” and the quiescence ([3]; 0.25 µM, 48 h) was 1/8. For the same compound, the quiescence ([3]; 2.5 µM, 24 h) was 1/8, the quiescence ([3]; 2.5 µM, 48 h) was 6/8 and the quiescence ([3]; 10 µM, 24 h) was 8/8. For the same compound, the quiescence ([3]; 10 µM, 48 h) was 8/8, the quiescence ([3]; 50 µM, 24 h) was 8/8 and the quiescence ([3]; 50 µM, 48 h) was 8/8. The “cardiomyocyte function / cardio-toxicity (in words)” value ([3]; 24 h) was “severe dysregulation of cardiomyocyte function”.

With `COc1cccc2c1C(=O)c1c(O)c3c(c(O)c1C2=O)C[C@@](O)(C(=O)CO)C[C@@H]3O[C@H]1C[C@H](N)[C@H](O)[C@H](C)O1` [Doxorubicin] the “effect on the cell monolayer (in words)” value [4] was “greater monolayer damage at both 24 and 48 h”, the electrical quiescence ([3]; 0.3 µM, 30 min) was 1/8 and the “cardiomyocyte function / cardio-toxicity (in words)” value ([3]; 24 h) was “largely had no effect on electrophysiology”.

In the case of `CCNC(=O)c1noc(-c2cc(C(C)C)c(O)cc2O)c1-c1ccc(CN2CCOCC2)cc1` [NVP AUY922], the IC50 ([1]; Homo sapiens, ARPE-19, 48 h) is reported as < 10 nM.

In the case of `CCc1cc(C(N)=O)ccc1-n1nc(C(C)C)c2c(-n3cnc(-c4cnn(C)c4)c3)ccnc21` [TAS-116], the IC50 ([1]; Homo sapiens, ARPE-19, 48 h) is listed as 444 nM and the “ocular toxicities in vivo” value [5] is listed as “avoid any ocular toxicities in vivo”.
